According to the supplement of paper PMC10307832:

What was measured:
Test in all cases: relative viability (nuclei count vs DMSO), 5 days (fraction); higher = more cells survive
Bexarotene + Linsitinib = compound: C=C(c1ccc(C(=O)O)cc1)c1cc2c(cc1C)C(C)(C)CCC2(C)C [Bexarotene] + C[C@]1(O)C[C@@H](c2nc(-c3ccc4ccc(-c5ccccc5)nc4c3)c3c(N)nccn32)C1 [Linsitinib] (partner 1 µM)
How it was run: (§1)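 After 5 days of treatment, lung cancer cells in 1536-well plates were fixed and stained in a single step (final 0.05% Triton X-100, 1% formaldehyde, 1 ug/ml Hoechst) and their nuclei counted on 4× images. Treatment had been applied by pin tool the day after seeding as one drug alone or as a fixed anchor-drug dose with five library-drug doses (not always all listed) in √10 steps. Relative viability is the nuclei count of treated wells divided by that of vehicle wells, and values are medians of duplicate plates.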

Bexarotene + Pictilisib = compound: C=C(c1ccc(C(=O)O)cc1)c1cc2c(cc1C)C(C)(C)CCC2(C)C [Bexarotene] + CS(=O)(=O)N1CCN(Cc2cc3nc(-c4cccc5[nH]ncc45)nc(N4CCOCC4)c3s2)CC1 [Pictilisib] (partner 1 µM)
How it was run: as §1

Bexarotene + Alpelisib = compound: C=C(c1ccc(C(=O)O)cc1)c1cc2c(cc1C)C(C)(C)CCC2(C)C [Bexarotene] + Cc1nc(NC(=O)N2CCC[C@H]2C(N)=O)sc1-c1ccnc(C(C)(C)C(F)(F)F)c1 [Alpelisib] (partner 2 µM)
How it was run: as §1

Bexarotene + Decitabine = compound: C=C(c1ccc(C(=O)O)cc1)c1cc2c(cc1C)C(C)(C)CCC2(C)C [Bexarotene] + Nc1ncn([C@H]2C[C@H](O)[C@@H](CO)O2)c(=O)n1 [Decitabine] (partner 2 µM)
How it was run: as §1

| Cell Line | relative viability (Bexarotene + Linsitinib; first compound 0.08 µM) | relative viability (Bexarotene + Linsitinib; first compound 0.253 µM) | relative viability (Bexarotene + Linsitinib; first compound 0.8 µM) | relative viability (Bexarotene + Linsitinib; first compound 2.53 µM) | relative viability (Bexarotene + Linsitinib; first compound 8 µM) | relative viability (Bexarotene + Pictilisib; first compound 0.08 µM) | relative viability (Bexarotene + Pictilisib; first compound 0.253 µM) | relative viability (Bexarotene + Pictilisib; first compound 0.8 µM) | relative viability (Bexarotene + Pictilisib; first compound 2.53 µM) | relative viability (Bexarotene + Pictilisib; first compound 8 µM) | relative viability (Bexarotene + Alpelisib; first compound 0.08 µM) | relative viability (Bexarotene + Alpelisib; first compound 0.253 µM) | relative viability (Bexarotene + Alpelisib; first compound 0.8 µM) | relative viability (Bexarotene + Alpelisib; first compound 2.53 µM) | relative viability (Bexarotene + Alpelisib; first compound 8 µM) | relative viability (Bexarotene + Decitabine; first compound 0.08 µM) | relative viability (Bexarotene + Decitabine; first compound 0.253 µM) | relative viability (Bexarotene + Decitabine; first compound 0.8 µM) | relative viability (Bexarotene + Decitabine; first compound 2.53 µM) | relative viability (Bexarotene + Decitabine; first compound 8 µM) |
| --- | --- | --- | --- | --- | --- | --- | --- | --- | --- | --- | --- | --- | --- | --- | --- | --- | --- | --- | --- | --- |
| LU99A | 0.616 | 0.504 | 0.477 | 0.518 | 0.653 | 0.377 | 0.407 | 0.379 | 0.297 | 0.323 | 0.592 | 0.57 | 0.535 | 0.475 | 0.61 | 1.18 | 1 | 0.935 | 0.909 | 0.889 |
| HCC-366 | 1.1 | 0.781 | 0.774 | 0.715 | 0.635 | 0.23 | 0.178 | 0.165 | 0.141 | 0.29 | 0.529 | 0.408 | 0.411 | 0.489 | 0.463 | 0.36 | 0.376 | 0.339 | 0.346 | 0.289 |
| EKVX | 0.971 | 1.04 | 0.922 | 0.996 | 0.937 | 0.352 | 0.432 | 0.446 | 0.357 | 0.404 | 0.889 | 0.855 | 0.781 | 0.849 | 0.76 | 0.299 | 0.338 | 0.309 | 0.172 | 0.332 |
| NCI-H2342 | – | – | – | – | – | – | – | – | – | – | – | – | – | – | – | 0.815 | 0.736 | 0.76 | 0.807 | 0.728 |
| NCI-H1755 | 1.05 | 1.1 | 1.08 | 0.992 | 1.02 | 0.457 | 0.454 | 0.356 | 0.37 | 0.337 | 0.917 | 1.05 | 0.94 | 0.876 | 0.917 | 0.783 | 0.743 | 0.783 | 0.778 | 0.75 |
| NCI-H647 | 1.29 | 1.41 | 1.22 | 1.26 | 0.914 | 0.378 | 0.356 | 0.429 | – | 0.358 | 1.06 | 1.15 | 1.13 | 1.1 | 0.843 | 0.439 | 0.394 | 0.412 | 0.419 | 0.335 |
| LC-2-ad | 0.88 | 0.94 | 0.742 | 0.786 | 0.881 | 0.809 | 0.473 | 0.433 | 0.503 | 0.381 | 0.872 | 1.15 | 0.762 | 0.96 | 0.861 | 0.805 | 0.85 | 0.853 | 0.772 | 0.813 |
| NCI-H1793 | 1.08 | 0.959 | 1.03 | 0.914 | 0.897 | 0.52 | 0.547 | 0.508 | 0.316 | 0.431 | 0.956 | 0.81 | 0.81 | 0.727 | 0.824 | 0.54 | 0.434 | 0.563 | 0.469 | 0.328 |
| HCC-827 | 1.01 | 0.966 | 0.896 | 0.906 | 0.854 | 1.07 | 1.08 | 0.888 | 1.02 | 0.971 | 1.05 | 0.844 | 0.969 | 1.04 | 0.917 | 0.396 | 0.311 | 0.33 | 0.298 | 0.335 |
